Data as given in patent US5770613A, “Telomerase inhibitors” (Geron Corporation, priority 1995, dated 1998).
Entries after “also recorded” stand apart in the source; their conditions may differ.

How the values were obtained:
telomerase [1] = target: T1, telomerase (Homo sapiens, UniProt O14746); test: Inhibition of telomerase activity (IC50); assay type: biochemical; settings: approximate values (Table 2)
T1 construct: preferably a cellular extract or other preparation containing telomerase; endogenous in cells

Topoisomerase II [2] = test: Enzyme-mediated DNA cleavage assay (Topoisomerase II targeting / cleavable complex formation); assay type: biochemical
Method: Compound V was tested for its ability to target Topoisomerase II in a standard enzyme-mediated DNA cleavage assay. The well known anti-tumor agent VP-16 was used as a positive control. […] The amount of linear DNA was proportional to the concentration of Compound V used in the experiment.

IMR-90 cells = test: Long-term exposure of cell colonies, induction of senescence; assay type: cell-based; settings: 5 μM, added every second day; versus DMSO control
Method: (§1) Colonies of the ovarian tumor cell lines OVCAR-5, SK-OV-3 and IMR-90 cells were prepared using standard methods and materials. In one test, the colonies were prepared by seeding 15-centimeter dishes with about 10^6 cells in each dish. The dishes were incubated to allow the cell colonies to grow to about 80% confluence, at which time each of the colonies was divided into two groups. One group was exposed to a subacute dose of Compound V (5 μM) 4-8 hours after plating following the split; the other group was exposed to a DMSO control.
(§2) Each group was then allowed to continue to divide, and the groups were split evenly again (near confluence). The same number of cells were seeded for continued growth. The compound or control was added every second day to the samples at the same concentration delivered initially (5 μM). […] No effect was seen on SK-OV-3 cells.

OVCAR-5 cells = test: Long-term exposure of cell colonies, effect on growth; assay type: cell-based; settings: 5 μM, added every second day; versus DMSO control
Method: as §1, §2

SK-OV-3 cells = test: as above; assay type: cell-based; settings: 5 μM, added every second day; versus DMSO control
Method: as §1, §2

[3] = test system: Single-Stranded DNA Binding Protein (SSB); test: Specificity screen versus telomerase; assay type: biochemical; settings: from IC50 screening
Source text: (§3) Compound V was screened for activity (IC50) against telomerase and several enzymes having nucleic acid binding or modifying activities related to telomerase using standard techniques. The enzymes screened included Telomerase, Topoisomerase II, Terminal Transferase and Single-Stranded DNA Binding Protein (SSB).

Terminal Transferase = test: Specificity screen versus telomerase; assay type: biochemical; settings: from IC50 screening
Source text: as §3

Topoisomerase II [4] = test: Specificity screen versus telomerase; assay type: biochemical; settings: from IC50 screening
Source text: as §3

telomerase [5] = target: T1, telomerase; test: specificity in IMR-90, OVCAR-5 and SK-OV-3 cell samples (Topoisomerase II, Single-Strand Binding Protein, Terminal Transferase); assay type: cell-based; settings: cell samples dosed at one quarter of the IC50 for telomerase, versus Topoisomerase II
Method: In on experiment, Compound V was administered to IMR-90, OVCAR-5, and SK-OV-3 cell samples at a concentration one quarter that of its IC50 for telomerase. The effects of Compound V on the activity of Topoisomerase II, Single-Strand Binding Protein, and Terminal Transferase were then determined using standard methodologies.

IMR-90 = test: XTT assay for cytotoxicity; assay type: cell-based; settings: Homo sapiens, 72 hours, 3 μM to 1,000 μM, read-out: LD50 (the source's name)
Method: (§4) The XTT assay for cytotoxicity was performed using the ovarian tumor cells lines IMR-90, OVCAR-5 and SK-OV-3. Cells from the normal human cell line BJ were used as a control. The cell lines used in the assay were exposed to Compound V of the invention for 72 hours at concentrations ranging from 3 μM to 1,000 μM. During this period, the optical density (OD) of the samples was determined for light at 540 nanometers (nm).

OVCAR-5 = test: XTT assay for cytotoxicity; assay type: cell-based; settings: Homo sapiens, 72 hours, 3 μM to 1,000 μM, read-out: LD50 (the source's name)
Method: as §4

SK-OV-3 = test: XTT assay for cytotoxicity; assay type: cell-based; settings: Homo sapiens, 72 hours, 3 μM to 1,000 μM, read-out: LD50 (the source's name)
Method: as §4

OVCAR-5 tumor cells = test: Human tumor xenograft model in nude mice, tumor mass; assay type: in vivo
Method: In vivo testing was also performed using a mouse xenograft model in which OVCAR-5 tumor cells were grafted onto nude mice. […] In contrast, mice treated with a control (DMSO) are expected to have tumor masses that continue to increase.
A human tumor xenograft model in which OVCAR-5 tumor cells were grafted into nude mice was constructed using standard techniques and materials. The mice were divided into two groups. One group was treated intraperitoneally with Compound V. The other group was treated with a control comprising DMSO and phosphate buffer solution (PBS). The average tumor mass for mice in each group was determined periodically following the xenograft using standard methods and materials.

T1 sequence (O14746 whole entry): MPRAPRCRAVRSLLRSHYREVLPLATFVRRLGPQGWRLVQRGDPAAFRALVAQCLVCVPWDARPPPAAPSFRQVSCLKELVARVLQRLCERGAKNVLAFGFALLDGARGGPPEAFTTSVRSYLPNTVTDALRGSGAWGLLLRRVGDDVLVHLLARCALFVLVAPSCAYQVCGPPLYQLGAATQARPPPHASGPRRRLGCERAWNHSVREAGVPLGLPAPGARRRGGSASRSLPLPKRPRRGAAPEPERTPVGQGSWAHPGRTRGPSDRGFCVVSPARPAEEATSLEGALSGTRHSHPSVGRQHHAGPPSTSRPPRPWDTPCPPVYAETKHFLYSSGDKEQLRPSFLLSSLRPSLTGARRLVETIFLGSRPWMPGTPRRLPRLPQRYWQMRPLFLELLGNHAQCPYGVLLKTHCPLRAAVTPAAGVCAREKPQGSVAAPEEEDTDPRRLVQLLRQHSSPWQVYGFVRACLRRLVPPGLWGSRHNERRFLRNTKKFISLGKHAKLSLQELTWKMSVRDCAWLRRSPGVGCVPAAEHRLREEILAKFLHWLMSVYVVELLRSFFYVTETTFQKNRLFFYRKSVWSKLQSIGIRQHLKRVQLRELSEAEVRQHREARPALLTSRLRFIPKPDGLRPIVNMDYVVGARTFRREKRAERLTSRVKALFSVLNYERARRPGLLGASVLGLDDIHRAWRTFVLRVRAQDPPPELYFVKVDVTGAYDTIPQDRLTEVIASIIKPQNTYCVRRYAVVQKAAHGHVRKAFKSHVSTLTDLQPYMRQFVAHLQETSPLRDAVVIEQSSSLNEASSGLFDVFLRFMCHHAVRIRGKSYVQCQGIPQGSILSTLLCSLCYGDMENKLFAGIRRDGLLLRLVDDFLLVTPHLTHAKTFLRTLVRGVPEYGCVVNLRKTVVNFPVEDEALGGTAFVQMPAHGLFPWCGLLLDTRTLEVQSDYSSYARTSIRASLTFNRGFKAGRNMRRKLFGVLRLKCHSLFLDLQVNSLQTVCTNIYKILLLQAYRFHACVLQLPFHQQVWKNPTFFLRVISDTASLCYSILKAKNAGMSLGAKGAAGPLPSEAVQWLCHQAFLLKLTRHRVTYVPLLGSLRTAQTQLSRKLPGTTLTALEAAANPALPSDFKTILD

Compound | IC50 (telomerase [1]) | further results
N#Cc1ccc(C=O)nc1SCc1ccc(Cl)c(Cl)c1 [Compound V] | 4.5 µM | Topoisomerase II-mediated DNA cleavage (linear DNA in agarose gel) (Topoisomerase II [2]; VP-16 as positive control): targeted Topoisomerase II; cleavable complex formation in Topoisomerase II, level of activity versus adriamycin and mitoxantrone (Topoisomerase II [2]; compared with adriamycin and mitoxantrone): greater than the well-known anti-tumor agents adriamycin and mitoxantrone; also recorded: stronger Topoisomerase II-targeting antitumor agent than the known Topoisomerase II-targeting agents adriamycin and mitoxantrone; inhibitory activity with respect to Topoisomerase II (Topoisomerase II [2]; qualitative statement): display inhibitory activity with respect to Topoisomerase II; also recorded: demonstrate inhibitory activity with respect to Topoisomerase II; Topoisomerase II activity relative to VP-16 (Topoisomerase II [2]; relative to VP-16): one fifth the activity of VP-16; induction of senescence earlier than DMSO control (IMR-90 cells): approximately 5 period doublings; effect on cell growth (OVCAR-5 cells): small effect; effect on cells (SK-OV-3 cells): No effect; lower specificity for Single-Stranded DNA Binding Protein (SSB) as compared to telomerase [3]: ≥ 5 fold; lower specificity for Terminal Transferase as compared to telomerase (Terminal Transferase): ≥ 5 fold; lower specificity for Topoisomerase II as compared to telomerase (Topoisomerase II [4]): ≥ 5 fold; specificity for telomerase (factor) (telomerase [5]): about 5; IC50 (IMR-90): 5 µM; IC50 (OVCAR-5): 15 µM; IC50 (SK-OV-3): 10 µM; tumor growth (OVCAR-5 tumor cells; 10 mg/(kg.day), intraperitoneal): not affected; increase in tumor weight (OVCAR-5 tumor cells; 25 mg/(kg.day), intraperitoneal): practically ceased after about 50 days; tumor mass over time (OVCAR-5 tumor cells; average, after increase for a period following initial dosing): began to level with continuing treatment; tumor growth as compared to vehicle (OVCAR-5 tumor cells; intraperitoneal, p<0.05, unpaired t-test): statistically significant slowing of tumor growth
N#Cc1ccc(C=O)nc1SCc1cccc2cccc(CSc3nc(C=O)ccc3C#N)c12 [Compound XXVII] | < 3.2 µM | –
N#Cc1ccc(C=O)nc1SCc1cc2ccccc2cc1CSc1nc(C=O)ccc1C#N [Compound XXVI] | 6 µM | –
N#Cc1ccc(C=O)nc1SCC=CCSc1nc(C=O)ccc1C#N [Compound XXXV] | 10 µM | –
N#Cc1ccc(C=O)nc1SCCCCSc1nc(C=O)ccc1C#N [Compound XXXIV] | 7 µM | –
N#Cc1ccc(C=O)nc1SCc1cccc(CSc2nc(C=O)ccc2C#N)c1 [Compound XVII] | < 3.2 µM | –
N#Cc1ccc(C=O)nc1SCc1cc(Cl)c(CSc2nc(C=O)ccc2C#N)cc1Cl [Compound XXI] | < 3.2 µM | –
N#Cc1ccc(C=O)nc1SCC#CCSc1nc(C=O)ccc1C#N [Compound XXXVI] | 5 µM | –
N#Cc1ccc(C=O)nc1SCc1ccccc1-c1ccccc1CSc1nc(C=O)ccc1C#N [Compound XXIV] | < 3.2 µM | –
Cc1c(C)c(C)c(CSc2nc(C=O)ccc2C#N)c(CSc2nc(C=O)ccc2C#N)c1C [Compound XX] | < 3.2 µM | –
N#Cc1ccc(C=O)nc1SCc1c(Cl)c(Cl)c(CSc2nc(C=O)ccc2C#N)c(Cl)c1Cl [Compound XXVIII] | < 3.2 µM | –
N#Cc1ccc(C=O)nc1SCC(=O)c1ccc(Cl)cc1Cl [Compound XI] | 27 µM | –
N#Cc1ccc(C=O)nc1SCc1ccc2ccccc2c1CSc1nc(C=O)ccc1C#N [Compound XXX] | 7 µM | –
N#Cc1ccc(C=O)nc1OCc1ccc(Cl)c(Cl)c1 [Compound XIII] | 12.8 µM | –
Cc1c(C)c(CSc2nc(C=O)ccc2C#N)c(C)c(CSc2nc(C=O)ccc2C#N)c1C [Compound XXII] | 4 µM | –
N#Cc1ccc(C=O)nc1SCC(=O)c1ccc(Cl)c(Cl)c1 [Compound X] | 10.9 µM | –
Cc1cc(CSc2nc(C=O)ccc2C#N)c(C)cc1CSc1nc(C=O)ccc1C#N [Compound XXIII] | 7 µM | –

Compound | IC50 (telomerase [1]) | further results
CCc1c(CSc2nc(C=O)ccc2C#N)ccc2c1C(C)(C)CCC2(C)C [VIII] | 21 µM | –
N#Cc1ccc(C=O)nc1SCc1ccc(CSc2nc(C=O)ccc2C#N)cc1 [Compound XIX] | 5 µM | –
N#Cc1ccc(C=O)nc1SCc1ccc(Cl)s1 [Compound IX] | 5 µM | –
N#Cc1ccc(C=O)nc1SCc1cc(Br)ccc1-c1ccc(Br)cc1CSc1nc(C=O)ccc1C#N [Compound XXV] | < 3.2 µM | –
N#Cc1ccc(C=O)nc1SCc1c2ccccc2c(CSc2nc(C=O)ccc2C#N)c2ccccc12 [Compound XXIX] | 7 µM | –
N#Cc1ccc(C=O)nc1SCC(=O)c1ccc(Cl)cc1 [Compound XII] | 15.1 µM | –
Cc1c(CSc2nc(C=O)ccc2C#N)c(C)c(CSc2nc(C=O)ccc2C#N)c(C)c1CSc1nc(C=O)ccc1C#N [Compound XXXI] | < 3.2 µM | –
N#Cc1ccc(C=O)nc1SCc1c(Cl)cccc1Cl [VI] | 7 µM | –
N#Cc1ccc(C=O)nc1SCc1ccc(CSc2nc(C=O)ccc2C#N)c(CSc2nc(C=O)ccc2C#N)c1CSc1nc(C=O)ccc1C#N [XXXII] | < 3.2 µM | –
Cc1cc(C)c(CSc2nc(C=O)ccc2C#N)c(C)c1CSc1nc(C=O)ccc1C#N [Compound XVI] | < 3.2 µM | –
Cc1c(C)c(C)c(CSc2nc(C=O)ccc2C#N)c(C)c1C [III] | 9 µM | –
N#Cc1ccc(C=O)nc1SCc1ccc(C(F)(F)F)cc1 [IV] | 18 µM | –
CC1(C)CCC(C)(C)c2cc(CSc3nc(C=O)ccc3C#N)ccc21 [VII] | 8 µM | –
Cc1cc(C)c(CSc2nc(C=O)ccc2C#N)cc1CSc1nc(C=O)ccc1C#N [Compound XV] | < 3.2 µM | –
N#Cc1ccc(C=O)nc1SCc1cc(CSc2nc(C=O)ccc2C#N)c(CSc2nc(C=O)ccc2C#N)cc1CSc1nc(C=O)ccc1C#N [XXXIII] | < 3.2 µM | –
N#Cc1ccc(C=O)nc1SCc1ccccc1CSc1nc(C=O)ccc1C#N [Compound XVIII] | 6 µM | –
